Results reported in patent publication US11865128B2, “Aminoglycosides and uses thereof in treating genetic disorders” (Technion Research & Development Foundation Limited, priority 2010, dated 2024).
In brackets after ≈: the same amount, converted by molar mass. Like-named read-outs stand apart in the source and are kept apart here.

Key:
B. subtilis ATCC6633 = assay: Antibacterial activity MIC, double-microdilution; type: cell-based, Bacillus subtilis; settings: Bacillus subtilis
E. coli R477/100 = assay: Antibacterial activity MIC, double-microdilution; type: cell-based, Escherichia coli; settings: Escherichia coli
[1] = molecular target: Prokaryotic system (prokaryotic ribosome); assay: Prokaryotic translation inhibition, coupled transcription/translation, luciferase detection; type: biochemical
Method: Prokaryotic and eukaryotic translation inhibition was quantified in coupled transcription/translation assays by using active luciferase detection, performed as described hereinabove. […] All the experiments were performed in duplicates and analogous results were obtained in three different experiments. In all biological tests, all tested aminoglycosides were in their sulfate salt forms. The concentrations reported refer to that of the free amine form of each aminoglycoside.
(§1) In all biological experiments conducted, all tested aminoglycosides were in their sulfate salt forms. The concentrations reported in Table 3 refer to that of the free amine form of each aminoglycoside. Prokaryotic and eukaryotic translation inhibition was quantified in coupled transcription/translation assays as previously described. The half-maximal concentration (IC50) values were obtained from fitting concentration response curves to the data of at least three independent experiments, using GraFit 5 software. All the experiments were performed in duplicates and analogous results were obtained in three different experiments.

[2] = test system: Eukaryotic system (eukaryotic cytoplasmic ribosome); assay: Eukaryotic translation inhibition, coupled transcription/translation, luciferase detection; type: biochemical
Source text: Prokaryotic and eukaryotic translation inhibition was quantified in coupled transcription/translation assays by using active luciferase detection, performed as described hereinabove. […] In all biological tests, all tested aminoglycosides were in their sulfate salt forms. The concentrations reported refer to that of the free amine form of each aminoglycoside.
as §1, with “software.” for “software. All the experiments were performed in duplicates and analogous results were obtained in three different experiments.”

[3] = Cell toxicity LC50 in HFF cells; type: cell-based; settings: human, Table 2, read-out: Cell toxicity LC50 HFF
Method: (§2) In order to ensure suitable cell viability for each of the tested compounds at the concentrations tested, cell toxicity was evaluated for each compound by measuring the half-maximal-lethal concentration value (LC50 values) in HEK-293 and HFF (human foreskin fibroblasts) cells.
(§3) The percentages of cell viability were calculated as the ratio between the numbers of living cells in cultures grown in the presence of the tested compounds, versus cultures grown under the identical protocol but without the tested compound. The results represent averages of at least three independent experiments.
(§4) The half-maximal lethal concentration (LC50) values were obtained from fitting concentration-response curves to the data of at least three independent experiments, using GraFit 5 software.

[4] = Cell toxicity LC50 in HEK-293 cells; type: cell-based; settings: human, Table 2, read-out: Cell toxicity LC50 HEK-293
Method: as §2, §3, §4

[5] = test system: nonsense mutation constructs R3X, R245X, G542X, W1282X, Q70X, R3381X (PCDH15, CFTR, IDUA, Dystrophin); assay: In vitro stop codon readthrough assay, p2Luc dual luciferase, TNT reticulocyte lysate; type: biochemical; settings: cell-free, mutations tested; comparison in words from FIGS. 2, 3, 5-7
Source text: DNA fragments derived from PCDH15, CFTR, Dystrophin and IDUA cDNAs, including the tested nonsense mutation or the corresponding wild type (wt) codon, and four to six upstream and downstream flanking codons were created by annealing following pairs of complementary oligonucleotides:
The fragments were inserted in frame into the polylinker of the p2Luc plasmid between either BamHI and SacI (p.R3X and p.R245X), or SalI and SacI (all the rest) restriction sites.
For the in vitro readthrough assays, the obtained plasm ids, with addition of the tested aminoglycosides were transcribed and translated using the TNT Reticulocyte Lysate Quick Coupled Transcription/Translation System. Luciferase activity was determined after 90 minutes of incubation at 30° C., using the Dual Luciferase Reporter Assay System (Promega™).
Initially, the influence of the chiral C5″-methyl group on readthrough potential was evaluated on the pseudo-trisaccharides NB118 and NB119 by using a dual luciferase reporter assay system as described hereinabove. Briefly, DNA fragments were cloned between BamHI and SacI restriction sites of the p2luc vector and the obtained constructs were transcribed and translated using TNT quick coupled transcription/translation system. The amount of the translated products was evaluated using the dual luciferase reporter assay system and used to calculate the suppression level.

human fibroblast cells = settings: background; cited from earlier work
[6] = test system: nonsense mutation constructs R3X, R245X, Q70X, W1282X, G542X in HEK-293 cells; assay: Ex vivo stop codon readthrough assay, p2luc constructs transfected to HEK-293 cells; type: cell-based, human; settings: ex vivo in HEK-293, all the mutations tested, FIGS. 4, 8-10
Method: For the ex vivo readthrough assays, the constructs harboring the R3X, R245X, Q70X and W1282X mutations were transfected to HEK-293 cells with Lipofectamine 2000 (Invitrogen) and addition of the tested compounds was performed 6 hours post transfection. The cells were harvested following 16 hours of incubation with the tested aminoglycosides. Stop codon readthrough was calculated as previously described (see, Grentzmann, G. et al., RNA, 1998, 4, p. 479).
The constructs were transfected into a human embryonic kidney cell line (HEK-293) and incubated with varying concentrations of NB122, NB123, NB54 and the control drug gentamicin, and the results are presented in FIGS. 4A-D.
As described hereinabove, the constructs of p2luc plasmid harboring the R3X, R245X, Q70X and W1282X mutations were transfected to HEK-293 cells using lipofectamine2000 and the tested compounds were added 6 hours post transfection. Cells were harvested after 16 hours incubation and luciferase activity was determined using the dual luciferase reporter assay system (Promega™). Stop codon readthrough was calculated as described previously, and the results are averages of at least three independent experiments.

[7] = test system: Prokaryotic system (prokaryotic ribosome); settings: shown previously; cited from earlier work
[8] = Table 2, read-out: Translation Inhibition Prokaryotic system IC50
[9] = Table 3, read-out: Translation Inhibition IC50^Pro
[10] = Table 2, read-out: Translation Inhibition Eukaryotic System IC50
[11] = Table 3, read-out: Translation Inhibition IC50^Euk

Row | SMILES | MIC (B. subtilis ATCC6633; ATCC6633, read-out: Antibacterial activity MIC B. subtilis ATCC6633) [µM] | MIC (E. coli R477/100; R477/100, read-out: Antibacterial activity MIC E. coli R477/100) [µM] | IC50 [1, 8] [µM] | IC50 [1, 9] [µM] | more selective to prokaryotic versus eukaryotic ribosome [2] [fold] | IC50 [2, 10] [µM] | IC50 [2, 11] [µM] | CC50 [3] [µM] | CC50 [4] [µM] | in vitro readthrough activity (stop codon suppression level) [5] | LD50 against human fibroblast cells (human fibroblast cells) [mg/mL] | MIC (B. subtilis ATCC6633; ATCC6633, Table 2, read-out: Antibacterial activity MIC B. subtilis ATCC6633) [µM] | MIC (E. coli R477/100; R477/100, Table 2, read-out: Antibacterial activity MIC E. coli R477/100) [µM] | Prokaryotic versus Eukaryotic selectivity IC50^Euk/IC50^Pro ([2]; ratio of eukaryotic to prokaryotic translation inhibition IC50) | CC50 ([3]; HFF (human foreskin fibroblast) cells) [µM] | CC50 ([4]; HEK-293 cells) [µM] | observed efficacy of aminoglycoside-induced readthrough, order [6] | weaker inhibitors of prokaryotic translation than gentamicin and paromomycin [7]
1 | CN[C@H]1[C@@H](O)C(OC2[C@H](N)CC(N)[C@@H](O[C@H]3OC(C(C)O)[C@@H](O)[C@H](O)C3N)[C@@H]2O)OCC1(C)O (stereo partly shown) [G418, reference compound] | < 1.25 | 9 (≈ 4.47 µg/mL) | 0.009 ± 0.002 | 0.009 ± 0.002 | 225 | 2 ± 0.3 | 2 | 1590 ± 140 | 1310 ± 60 | the strongest readthrough inducer | 0.04 | – | – | – | – | – | – | –
2 | C[C@@H](O)C1O[C@H](O[C@@H]2C(N)C[C@@H](NC(=O)[C@@H](O)CCN)[C@@H](O)C2O[C@@H]2O[C@H](CN)[C@H](O)C2O)[C@@H](N)C(O)[C@@H]1O (stereo partly shown) [NB84, reference compound] | – | – | 0.98 ± 0.07 | 0.98 ± 0.07 | – | 2.8 ± 0.3 | 2.8 ± 0.3 | – | – | – | – | 70 (≈ 39.9 µg/mL) | 556 (≈ 317 µg/mL) | 2.9 | 16300 ± 470 | 5770 ± 680 | NB127 NB128>NB84>gentamicin | about 10 fold
